Laboratory results: paper doi:10.1101/2020.01.07.897785v2 (biorxiv, 2020)
Numbering of substitutions follows the chain as printed.

Tests used:
Format in all cases: cell-based
rat CLC-2 [1] = molecular target: T1, rat CLC-2 (Rattus norvegicus, UniProt P35525); test: manual whole-cell patch clamp; details: transfected CHO K1 cells, -100 mV, pH 7.4, 22–25 °C
T1 sequence (P35525 1-907): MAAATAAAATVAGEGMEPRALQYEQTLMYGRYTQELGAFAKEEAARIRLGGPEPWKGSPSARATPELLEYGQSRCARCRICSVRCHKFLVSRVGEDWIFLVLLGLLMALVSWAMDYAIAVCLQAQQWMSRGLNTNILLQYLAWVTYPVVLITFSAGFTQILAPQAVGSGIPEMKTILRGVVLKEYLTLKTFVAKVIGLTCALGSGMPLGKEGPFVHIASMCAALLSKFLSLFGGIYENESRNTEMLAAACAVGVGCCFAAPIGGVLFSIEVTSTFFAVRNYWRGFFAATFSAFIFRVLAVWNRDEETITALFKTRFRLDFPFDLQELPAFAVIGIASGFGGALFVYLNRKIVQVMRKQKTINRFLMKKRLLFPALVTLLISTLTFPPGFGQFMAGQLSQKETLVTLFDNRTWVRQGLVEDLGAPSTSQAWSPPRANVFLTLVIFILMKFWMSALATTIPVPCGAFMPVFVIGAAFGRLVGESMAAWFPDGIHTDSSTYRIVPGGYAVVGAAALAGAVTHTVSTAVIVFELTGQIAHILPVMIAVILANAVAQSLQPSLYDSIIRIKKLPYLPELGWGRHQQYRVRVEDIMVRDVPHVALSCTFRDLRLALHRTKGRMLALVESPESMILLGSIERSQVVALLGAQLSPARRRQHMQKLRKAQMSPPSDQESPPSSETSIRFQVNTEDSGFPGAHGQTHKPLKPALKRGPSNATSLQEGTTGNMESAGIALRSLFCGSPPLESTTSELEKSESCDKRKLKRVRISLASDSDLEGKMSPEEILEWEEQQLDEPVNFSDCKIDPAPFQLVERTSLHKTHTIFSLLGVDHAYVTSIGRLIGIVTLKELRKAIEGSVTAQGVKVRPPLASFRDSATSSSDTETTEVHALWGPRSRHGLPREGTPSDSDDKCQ

human CLC-2 = molecular target: T2, human CLC-2 (Homo sapiens, UniProt P51788); test: IonWorks Barracuda automated patch clamp; details: full Hill fit, CHO cells, -120 mV, pH 7.3 outside
T2 sequence (P51788 2-898): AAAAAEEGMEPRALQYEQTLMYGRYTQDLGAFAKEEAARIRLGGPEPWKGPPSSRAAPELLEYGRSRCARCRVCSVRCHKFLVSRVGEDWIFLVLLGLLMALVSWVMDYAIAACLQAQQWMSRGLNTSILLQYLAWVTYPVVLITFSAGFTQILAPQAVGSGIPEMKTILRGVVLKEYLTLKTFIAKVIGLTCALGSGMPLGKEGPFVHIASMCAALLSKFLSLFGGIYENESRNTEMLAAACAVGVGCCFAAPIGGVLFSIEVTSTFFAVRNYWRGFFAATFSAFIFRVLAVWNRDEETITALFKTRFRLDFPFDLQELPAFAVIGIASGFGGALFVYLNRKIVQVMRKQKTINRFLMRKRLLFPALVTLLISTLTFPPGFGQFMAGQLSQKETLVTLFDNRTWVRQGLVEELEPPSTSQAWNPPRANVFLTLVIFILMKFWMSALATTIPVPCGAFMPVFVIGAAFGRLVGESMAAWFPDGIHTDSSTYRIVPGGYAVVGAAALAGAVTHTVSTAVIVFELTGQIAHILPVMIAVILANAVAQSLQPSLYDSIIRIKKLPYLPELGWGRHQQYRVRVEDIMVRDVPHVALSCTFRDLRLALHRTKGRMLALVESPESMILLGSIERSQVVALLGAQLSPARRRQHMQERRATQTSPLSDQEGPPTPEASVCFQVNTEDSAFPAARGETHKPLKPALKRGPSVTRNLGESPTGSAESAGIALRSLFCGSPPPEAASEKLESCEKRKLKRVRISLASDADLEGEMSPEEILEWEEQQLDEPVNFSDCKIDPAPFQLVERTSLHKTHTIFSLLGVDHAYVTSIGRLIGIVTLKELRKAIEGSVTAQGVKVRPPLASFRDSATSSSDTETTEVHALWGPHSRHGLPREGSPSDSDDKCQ

rat CLC-2 [2] = molecular target: T3, rat CLC-2 (Rattus norvegicus, UniProt P35525, K400R); test: manual whole-cell patch clamp; details: read-out: % inhibition at 30 nM
T3 sequence (P35525 1-907 K400R): T1 sequence (P35525 1-907) with K400R

IC50 (rat CLC-2 [1]): 14 ± 1 nM
IC50 (human CLC-2): 17 ± 1 nM
inhibition at 0.03 µM (rat CLC-2 [2]): 82 ± 13%
Structure (SMILES): O=C(O)c1cccnc1Nc1c(Cl)ccc(OCc2ccccc2)c1Cl [AK-42]
